From ChEMBL document CHEMBL1201862, “PubChem BioAssay data set” (2004)
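Each compound was tested at five concentrations against cells in 96-well plates for 48 hours. Here, GI50 denotes the concentration required for 50% inhibition of growth.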 The source made the active and inactive calls. Cut-off read from the data, not from the text of the source: active = GI50 up to about 1.1 µM and inactive = higher.

Assays:
Assay in all cases: growth of human tumour cells (NCI), 48 h
[1] = system: HCT-116
[2] = system: HCC 2998
[3] = system: SK-MEL-5
[4] = system: NCI-H522
[5] = system: UACC-62
[6] = system: SK-OV-3
[7] = system: SW-620
[8] = system: SK-MEL-2
[9] = system: LOX IMVI
[10] = system: A549
[11] = system: T47D
[12] = system: HL-60
[13] = system: CAKI-1
[14] = system: COLO 205
[15] = system: SNB-75
[16] = system: NCI-H23
[17] = system: M14
[18] = system: U-251
[19] = system: Malme-3M

Structure (SMILES) | GI50 [1] | GI50 [2] | GI50 [3] | GI50 [4] | GI50 [5] | GI50 [6] | GI50 [7] | GI50 [8] | GI50 [9] | GI50 [10] | GI50 [11] | GI50 [12] | GI50 [13] | GI50 [14] | GI50 [15] | GI50 [16] | GI50 [17] | GI50 [18] | GI50 [19]
COC(=O)c1c(C)cccc1C1CN=NC12Cc1ccccc1C2=O (stereo not given) | 46.2 µM (inactive) | > 100 µM (inactive) | 37.4 µM (inactive) | 43.5 µM (inactive) | 74.6 µM (inactive) | > 100 µM (inactive) | > 100 µM (inactive) | > 100 µM (inactive) | 31.2 µM (inactive) | > 82.6 µM (inactive) | 38.1 µM (inactive) | 36.9 µM (inactive) | 98.6 µM (inactive) | 60.8 µM (inactive) | 65.2 µM (inactive) | 60.4 µM (inactive) | 20.1 µM (inactive) | > 100 µM (inactive) | > 45.1 µM (inactive)
CCOC(=O)CCC(C(=O)OCC)n1nnc2ccc(Nc3c(C)[n+]([O-])c4cc(Cl)ccc4[n+]3[O-])cc21 (stereo not given) | 25.1 µM (inactive) | 16.8 µM (inactive) |  | 19.5 µM (inactive) | 17.4 µM (inactive) | 99.5 µM (inactive) |  | 21.7 µM (inactive) | 17.7 µM (inactive) | 61.5 µM (inactive) | 19.5 µM (inactive) | 29.9 µM (inactive) | 34.4 µM (inactive) | 19.3 µM (inactive) | 44.7 µM (inactive) | 24.8 µM (inactive) | 19 µM (inactive) | 51.8 µM (inactive) | 17.3 µM (inactive)
c1ccc(COc2ncccc2C2SCCCS2)cc1 | > 100 µM (inactive) | > 100 µM (inactive) | > 100 µM (inactive) | > 100 µM (inactive) | > 100 µM (inactive) |  | > 100 µM (inactive) | > 100 µM (inactive) | 82.4 µM (inactive) | > 100 µM (inactive) | 32.9 µM (inactive) | > 10 µM (inactive) | > 100 µM (inactive) | > 100 µM (inactive) |  | > 100 µM (inactive) | > 100 µM (inactive) | > 100 µM (inactive) | > 100 µM (inactive)
CC(=O)Nc1ccc2c(c1)/C(=C\c1ccc([N+](C)(C)C)cc1)c1ccccc1-2 | 85.3 µM (inactive) | 55.6 µM (inactive) | 24.2 µM (inactive) | 32.9 µM (inactive) | 48 µM (inactive) | 61.7 µM (inactive) | 44.1 µM (inactive) |  | 47.9 µM (inactive) | 33.7 µM (inactive) | 23.2 µM (inactive) | 24.8 µM (inactive) | > 100 µM (inactive) | 18 µM (inactive) | 28.1 µM (inactive) | 64.4 µM (inactive) | 16 µM (inactive) | 18.4 µM (inactive) | 39.3 µM (inactive)
COC(=O)/C=C(/C=C1/C(C#N)=C(N)N(c2ccc(Cl)cc2)C1(C)/C(=C/C(=O)OC)C(=O)OC)C(=O)OC (stereo not given) | 28.9 µM (inactive) | 82.6 µM (inactive) |  | 33.2 µM (inactive) | 19.6 µM (inactive) | 52.5 µM (inactive) | 32.7 µM (inactive) | > 100 µM (inactive) | 23.9 µM (inactive) |  | 49.1 µM (inactive) | 15.7 µM (inactive) | > 100 µM (inactive) | 25.1 µM (inactive) | 20.5 µM (inactive) | 42.3 µM (inactive) | 76.9 µM (inactive) | 41.4 µM (inactive) | 51.2 µM (inactive)
[O-][n+]1ccccc1Sc1nc(Sc2cccc[n+]2[O-])nc(Sc2cccc[n+]2[O-])n1 | 1.25 µM (inactive) | 1.51 µM (inactive) | 1.31 µM (inactive) | 0.745 µM (active) | 1.22 µM (inactive) | 7.24 µM (inactive) | 0.248 µM (active) | 1.8 µM (inactive) | 0.92 µM (active) | 2.99 µM (inactive) | 2.03 µM (inactive) | 0.1 µM (active) | 0.9 µM (active) | 0.386 µM (active) | 4.2 µM (inactive) | 1.36 µM (inactive) | 1.26 µM (inactive) | 1.69 µM (inactive) | 1.95 µM (inactive)
CN(N=O)C(=O)NNC(=O)N(C)N=O | 74 µM (inactive) | > 100 µM (inactive) | 67.6 µM (inactive) | 27 µM (inactive) | 92.5 µM (inactive) | > 100 µM (inactive) | 36.2 µM (inactive) | 73.3 µM (inactive) | 44.4 µM (inactive) | > 100 µM (inactive) | 79.1 µM (inactive) | 31.6 µM (inactive) | > 100 µM (inactive) | 50.1 µM (inactive) | > 100 µM (inactive) | 71.8 µM (inactive) | 93.5 µM (inactive) | 52.5 µM (inactive) | 
